Where a name gives a salt, the structure may show the parent alone.

This test concerns the target T1, mGlyT-1b (Mus musculus, UniProt P28571).
T1 construct: host or cells: Flp-in-CHO
T1 sequence (P28571 1-651 isoform P28571-2): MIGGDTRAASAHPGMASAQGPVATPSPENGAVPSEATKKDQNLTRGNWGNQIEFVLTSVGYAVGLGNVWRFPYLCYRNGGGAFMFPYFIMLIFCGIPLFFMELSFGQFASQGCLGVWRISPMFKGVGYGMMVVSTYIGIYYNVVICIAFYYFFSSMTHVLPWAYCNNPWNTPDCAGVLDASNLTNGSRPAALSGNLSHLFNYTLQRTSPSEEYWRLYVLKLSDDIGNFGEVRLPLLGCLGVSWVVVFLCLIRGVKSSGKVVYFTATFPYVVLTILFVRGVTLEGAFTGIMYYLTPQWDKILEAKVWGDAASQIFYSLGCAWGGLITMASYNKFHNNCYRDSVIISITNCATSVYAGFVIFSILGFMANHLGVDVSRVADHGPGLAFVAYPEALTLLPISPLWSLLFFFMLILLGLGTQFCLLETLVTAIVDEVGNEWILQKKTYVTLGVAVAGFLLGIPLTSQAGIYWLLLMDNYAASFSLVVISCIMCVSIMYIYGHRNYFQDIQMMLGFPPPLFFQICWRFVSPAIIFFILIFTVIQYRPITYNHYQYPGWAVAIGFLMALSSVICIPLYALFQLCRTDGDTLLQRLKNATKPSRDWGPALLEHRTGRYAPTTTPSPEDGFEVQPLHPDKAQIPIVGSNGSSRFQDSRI
Description: Glycine uptake inhibition assay (mGlyT-1b), [3H]-glycine uptake in transfected Flp-in-CHO cells. It is filed as cell-based. The following applies: Flp-in-CHO cells transfected with mGlyT-1b cDNA; [3H]-glycine 60 nM and 25 μM non-radioactive glycine; 20 min preincubation at 22° C.; read-out: IC50 (μM) at GlyT-1; Ic50 (hglyt1b). The essentials: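 Flp-in CHO cells stably expressing mouse GlyT-1b were preincubated 20 min at 22 °C with inhibitor in pH 7.4 Hepes-Tris buffer. Uptake was then run with 60 nM [3H]-glycine plus 25 μM unlabeled glycine, with 10 mM glycine defining nonspecific uptake. Cell radioactivity was counted by scintillation to derive IC50.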
Regarding `N[C@@H](c1ccc(Cl)c(Cl)c1)[C@H](O)c1ccc(OC2CCOC2)nc1` (mixture of isomers) [Example 19, rac-erythro-[rac-2-Amino-2-(3,4-dichloro-phenyl)-1-[6-(tetrahydro-furan-3-yloxy)-pyridin-3-yl]-ethanoldihydrochloride], the IC50 (as a rule, the concentration that gives 50% inhibition) turned out to be 0.082 µM.

For the compound `COc1cc(-c2cncc(F)c2)ccc1[C@@H](O)[C@@H](N)c1ccc(Cl)c(Cl)c1` (racemic) [Example 4, rac-erythro-[2-Amino-2-(3,4-dichloro-phenyl)-1-[4-(5-fluoro-pyridin-3-yl)-2-methoxy-phenyl]-ethanoldihydrochloride], the IC50 is 0.346 µM.

Turning to `N[C@@H](c1ccc(Cl)cc1)[C@H](O)c1ccc(-c2cncc(F)c2)cc1` (racemic) [Example 66, rac-erythro-2-Amino-2-(4-chloro-phenyl)-1-[4-(5-fluoro-pyridin-3-yl)-phenyl]-ethanol], the IC50 is 0.152 µM.

Take `CS(=O)(=O)c1cccc(-c2ccc([C@@H](O)[C@@H](N)c3ccc(Cl)c(Cl)c3)c(F)c2)c1` (racemic) [Example 1, rac-erythro-[2-Amino-2-(3,4-dichloro-phenyl)-1-(3-fluoro-3′-methanesulfonyl-biphenyl-4-yl)-ethanol trifluoroacetate]: the 50% inhibitory concentration (IC50) was determined as 0.025 µM.

With `CN(C)c1cccc(-c2ccc([C@@H](O)[C@@H](N)c3ccc(Cl)c(Cl)c3)cc2)c1` (racemic) [Example 89, rac-erythro-2-Amino-2-(3,4-dichloro-phenyl)-1-(3′-dimethylamino-biphenyl-4-yl)-ethanol], the IC50 was found to be 0.305 µM.

For `CC(=O)Nc1cccc(-c2ccc([C@@H](O)[C@@H](N)c3ccc(Cl)cc3)cc2)c1` (racemic) [Example 67, rac-erythro-N-[4′-[2-Amino-2-(4-chloro-phenyl)-1-hydroxy-ethyl]-biphenyl-3-yl]-acetamide], the IC50 was determined as 0.173 µM.

Regarding `N[C@@H](c1ccc(Cl)c(Cl)c1)[C@H](O)c1ccc(-c2cncc(F)c2)cc1` (single isomer, unassigned) [Example 8, (1R,2S or 1S,2R)-2-Amino-2-(3,4-dichloro-phenyl)-1-[4-(5-fluoro-pyridin-3-yl)-phenyl]-ethanol trifluoroacetate], the IC50 worked out at 0.059 µM.

Regarding `N[C@@H](c1ccc(C(F)(F)F)c(F)c1)[C@H](O)c1ccc(-c2cncc(F)c2)cc1` (racemic) [Example 96, rac-erythro-2-Amino-1-[4-(5-fluoro-pyridin-3-yl)-phenyl]-2-(3-fluoro-4-trifluoromethyl-phenyl)-ethanol], the IC50 was determined as 0.733 µM.

As for `Cc1ccc([C@H](N)[C@H](O)c2ccc(-c3cncc(F)c3)cc2)cc1F` (racemic) [Example 94, rac-erythro-2-Amino-2-(3-fluoro-4-methyl-phenyl)-1-[4-(5-fluoro-pyridin-3-yl)-phenyl]-ethanol], the IC50 stood at 0.104 µM.

Turning to `N[C@@H](c1ccc(Cl)cc1)[C@H](O)c1ccc(-c2ccncc2)cc1` (racemic) [Example 61, rac-erythro-2-Amino-2-(4-chloro-phenyl)-1-(4-pyridin-4-yl-phenyl)-ethanol], the 50% inhibitory concentration (IC50) is 0.06 µM.

With `Cc1ccc([C@H](N)[C@H](O)c2ccc(OC3CCOCC3)cc2)cc1F` (racemic) [Example 57, rac-erythro-2-Amino-2-(3-fluoro-4-methyl-phenyl)-1-[4-(tetrahydro-pyran-4-yloxy)-phenyl]-ethanol], the IC50 is 0.202 µM.

Take `Cc1ccc([C@H](N)[C@H](O)c2ccc(-c3cccnc3)cc2)cc1Cl` (racemic) [Example 92, rac-erythro-2-Amino-2-(3-chloro-4-methyl-phenyl)-1-(4-pyridin-3-yl-phenyl)-ethanol]: the IC50 came to 0.084 µM.

Take `COc1cccc(-c2cnc([C@@H](O)[C@@H](N)c3ccc(Cl)c(Cl)c3)c(F)c2)c1` (racemic) [Example 13, rac-erythro-[2-Amino-2-(3,4-dichloro-phenyl)-1-[3-fluoro-5-(3-methoxy-phenyl)-pyridin-2-yl]-ethanoldihydrochloride]: the IC50 came to 0.113 µM.

With `Cc1cc(-c2cncc(F)c2)ccc1[C@@H](O)[C@@H](N)c1ccc(Cl)c(Cl)c1` (racemic) [Example 2, rac-erythro-[2-Amino-2-(3,4-dichloro-phenyl)-1-[4-(5-fluoro-pyridin-3-yl)-2-methyl-phenyl]]-ethanol dihydrochloride], the concentration for half-maximal inhibition (IC50) worked out at 0.063 µM.

With `Cc1cc([C@@H](O)[C@@H](N)c2ccc(Cl)c(Cl)c2)cnc1OC1CCOC1` (mixture of isomers) [Example 31, rac-erythro-[(rac)-2-Amino-2-(3,4-dichloro-phenyl)-1-[5-methyl-6-(tetrahydro-furan-3-yloxy)-pyridin-3-yl]-ethanoldihydrochloride], the concentration for half-maximal inhibition (IC50) was 0.646 µM.

Consider `N[C@@H](c1ccc(Cl)cc1F)[C@H](O)c1ccc(-c2cccnc2)cc1` (racemic) [Example 97, rac-erythro-2-Amino-2-(4-chloro-2-fluoro-phenyl)-1-(4-pyridin-3-yl-phenyl)-ethanol], for which the IC50 is 0.267 µM.

As to `N[C@@H](c1ccc(Cl)c(F)c1)[C@H](O)c1ccc(-c2cncc(F)c2)cc1` (racemic) [Example 85, rac-erythro-2-Amino-2-(4-chloro-3-fluoro-phenyl)-1-[4-(5-fluoro-pyridin-3-yl)-phenyl]-ethanol], the IC50 came out at 0.095 µM.

On to `N[C@@H](c1ccc(Cl)cc1)[C@H](O)c1ccc(-c2ccsc2)cc1` (racemic) [Example 70, rac-erythro-2-Amino-2-(4-chloro-phenyl)-1-(4-thiophen-3-yl-phenyl)-ethanol], for which the 50% inhibitory concentration (IC50) was found to be 0.297 µM.

As for `C[C@@](O)(c1ccc(-c2ccccc2)cc1)[C@@H](N)c1ccc(Cl)cc1` (racemic) [Example 36, rac-erythro-[1-Amino-2-biphenyl-4-yl-1-(4-chloro-phenyl)-propan-2-ol trifluoroacetate], the concentration for half-maximal inhibition (IC50) was found to be 0.3 µM.

Regarding `N[C@@H](c1ccc(Cl)c(Cl)c1)[C@H](O)c1ccc(OCCC(F)(F)F)cc1` (racemic) [Example 52, rac-erythro-2-Amino-2-(3,4-dichloro-phenyl)-1-[4-(3,3,3-trifluoro-propoxy)-phenyl]-ethanol], the IC50 came out at 0.772 µM.

For `Cc1ccc([C@H](N)[C@H](O)c2ccc(OC(C)C)cc2)cc1Cl` (racemic) [Example 56, rac-erythro-2-Amino-2-(3-chloro-4-methylphenyl)-1-(4-isopropoxy-phenyl)-ethanol], the half-maximal inhibitory concentration (IC50) is 0.381 µM.

As for `CC(C)(C)c1ccc([C@@H](O)[C@@H](N)c2ccc(Cl)c(Cl)c2)cc1` (racemic) [Example 37, rac-erythro-[2-Amino-1-(4-tert-butyl-phenyl)-2-(3,4-dichloro-phenyl)-ethanol trifluoroacetate], the IC50 was found to be 0.876 µM.

In the case of `N[C@@H](c1ccc(Cl)c(Cl)c1)[C@H](O)c1ccc(OC2CCOCC2)cc1F` (racemic) [Example 33, rac-erythro-[2-Amino-2-(3,4-dichloro-phenyl)-1-[2-fluoro-4-(tetrahydro-pyran-4-yloxy)-phenyl]-ethanol hydrochloride], the IC50 was 0.036 µM.

With `Cc1ccccc1-c1ccc([C@@H](O)[C@@H](N)c2ccc(Cl)cc2)cc1` (racemic) [Example 76, rac-erythro-2-Amino-2-(4-chloro-phenyl)-1-(2′-methyl-biphenyl-4-yl)-ethanol], the IC50 was determined as 0.642 µM.

For the compound `Cc1cc([C@@H](O)[C@@H](N)c2ccc(Cl)c(Cl)c2)ccc1-c1cncc(F)c1` (racemic) [Example 14, rac-erythro-[2-Amino-2-(3,4-dichloro-phenyl)-1-[4-(5-fluoro-pyridin-3-yl)-3-methyl-phenyl]-ethanolbis-trifluoroacetate], the IC50 amounted to 0.275 µM.

In the case of `N[C@@H](c1ccc(Cl)cc1)[C@H](O)c1ccc(OC2CCCC2)cc1` (racemic) [Example 48, rac-erythro-[2-Amino-2-(4-chloro-phenyl)-1-(4-cyclopentyloxy-phenyl)-ethanol hydrochloride], the IC50 is 0.433 µM.

For `CC(Oc1ccc([C@@H](O)[C@@H](N)c2ccc(Cl)cc2)cc1)C(F)(F)F` (mixture of isomers) [Example 102, rac-erythro-2-Amino-2-(4-chloro-phenyl)-1-[4-(2,2,2-trifluoro-1-methyl-ethoxy)-phenyl]-ethanol], the IC50 amounted to 0.384 µM.

Take `Cc1cccc(-c2ccc([C@@H](O)[C@@H](N)c3ccc(Cl)cc3)cc2)c1` (racemic) [Example 71, rac-erythro-2-Amino-2-(4-chloro-phenyl)-1-(3′-methyl-biphenyl-4-yl)-ethanol]: the IC50 is 0.342 µM.

`CS(=O)(=O)c1cccc(-c2ccc([C@@H](O)[C@@H](N)c3ccc(Cl)c(Cl)c3)cc2)c1` (racemic) [Example 7, rac-erythro-[2-Amino-2-(3,4-dichloro-phenyl)-1-(3′-methanesulfonyl-biphenyl-4-yl)-ethanol trifluoroacetate]: the half-inhibitory concentration (IC50) was 0.041 µM.

The record behind these values is patent publication US8367838B2, “Amines or amino alcohols as GLYT1 inhibitors” (Hoffmann-La Roche Inc., priority 2009, dated 2013).
